Data: the NIST ThermoML archive (doi:10.1016/j.fluid.2011.11.020)
Numbers after ± are expanded uncertainties. One block for each molecule: values may come before it.

Details: Liquid, Ebulliometric method (Recirculating still)

SMILES: CC(C)=C(C)C [2,3-dimethyl-2-butene]
- Normal boiling temperature: 73.00 ± 0.21 °C

SMILES: CCC(C)C [2-methylbutane]
- Normal boiling temperature: 28.00 ± 0.2 °C

SMILES: C=C(C)C(C)C [2,3-dimethyl-1-butene]
- Normal boiling temperature: 55.73 ± 0.2 °C

More lines, now with the values ahead:

- Normal boiling temperature: 84.27 ± 0.2 °C
SMILES: c1ccsc1 [thiophene]

- vapor or sublimation pressure (370.27 K): 97.43 ± 0.14 kPa
- vapor or sublimation pressure (370.74 K): 98.52 ± 0.15 kPa
- vapor or sublimation pressure (370.93 K): 99.39 ± 0.17 kPa
- vapor or sublimation pressure (371.13 K): 99.78 ± 0.16 kPa
- vapor or sublimation pressure (371.52 K): 101.07 ± 0.17 kPa
- vapor or sublimation pressure (372.25 K): 103.43 ± 0.11 kPa
- vapor or sublimation pressure (372.36 K): 103.56 ± 0.17 kPa
- vapor or sublimation pressure (372.56 K): 104.41 ± 0.15 kPa
- vapor or sublimation pressure (372.76 K): 104.67 ± 0.17 kPa
- vapor or sublimation pressure (372.97 K): 105.83 ± 0.19 kPa
- vapor or sublimation pressure (373.17 K): 106.29 ± 0.14 kPa
- vapor or sublimation pressure (373.48 K): 107.02 ± 0.14 kPa
- Normal boiling temperature: 98.49 ± 0.2 °C
SMILES: CCCCCCC [heptane]
